# Structures can show the parent of a compound that is named as a salt. Where two headings read alike, the source gives them in different places.
# Columns and labels:
# [1] = pH of anthracycline injections when dissolved; format: physicochemical; details: lyophilized preparation for clinical administration dissolved in physiological saline solution or 5% glucose injection
# Protocol: Actually, when the anthracycline anticancer agents being sold in Japan (all of them are injections) are dissolved in a distilled water for injection or a physiological saline solution, the pH values thereof are as follows (Drugs (ethical drugs) in Japan, 24 ed., 2001, edited by Japan Pharmaceutical Information Center).
# (§1) On the contrary, since amrubicin hydrochloride tends to generate a deaminated compound (3) at a pH value of 3.5 or above, it is unstable at a high pH value as shown in the above anthracycline anticancer agents, and when the lyophilized preparation of amrubicin hydrochloride for clinical administration is dissolved in a physiological saline solution or a 5% glucose injection, the pH value thereof is 2.4 to 3.0.
# [2] = Degradation in solution state at controlled solution temperature (Experiment 4); format: physicochemical
# Protocol: To amrubicin hydrochloride (20 mg potency) in a glass beaker were added L-cysteine hydrochloride monohydrate (3.2 mg) and lactose (50 mg) as an excipient, and the resultant was dissolved in a distilled water for injection. The pH value of the solution was slightly adjusted to about pH 3 with a trace amount of sodium hydroxide and hydrochloric acid, and the resulting solution was put into a temperature-controlled bath at 5° C., 10° C., 15° C. and 25° C. The solution was sampled at the start, 6 hours later, and 24 hours later, and the degradation products therein were measured by HPLC method. The increased amounts of the desaccharified compound (2) and the deaminated compound (3) from those at the start are shown in Table 4.
# [3] = pH dependence of generation of deaminated compound (3) from amrubicin hydrochloride; format: physicochemical
# Protocol: as §1
# [4] = injection sold in Japan dissolved in distilled water for injection or physiological saline solution; cited from earlier work
# [5] = Turbidity of injection solution prepared from lyophilized amrubicin preparation; format: physicochemical
# [6] = solution about pH 3, 5° C., 6 h
# [7] = solution about pH 3, 5° C., 24 h
# [8] = solution about pH 3, 10° C., 0 h
# [9] = solution about pH 3, 10° C., 6 h
# [10] = solution about pH 3, 10° C., 24 h
# [11] = solution about pH 3, 15° C., 0 h
# [12] = solution about pH 3, 15° C., 6 h
# [13] = solution about pH 3, 15° C., 24 h
# [14] = solution about pH 3, 25° C., 0 h
# [15] = solution about pH 3, 25° C., 6 h
# [16] = solution about pH 3, 25° C., 24 h
smiles,measurement,setting,value
"CC(=O)[C@]1(N)Cc2c(O)c3c(c(O)c2[C@@H](O[C@H]2C[C@H](O)[C@H](O)CO2)C1)C(=O)c1ccccc1C3=O [amrubicin hydrochloride, (7S,9S)-9-Acetyl-9-amino-7-[(2-deoxy-β-D-erythro-pentopyranosyl)-oxy]-7,8,9,10-tetrahydro-6,11-dihydroxy-5,12-naphthacenedione]",pH value,[1],2.4 to 3.0
same,Increased amount of deaminated compound (3),"[2]; solution about pH 3, 5° C., 0 h",0.00%
same,Increased amount of deaminated compound (3),[2]; [6],0.00%
same,Increased amount of desaccharified compound (2),[2]; [6],−0.01%
same,Increased amount of deaminated compound (3),[2]; [7],0.04%
same,Increased amount of desaccharified compound (2),[2]; [7],0.02%
same,Increased amount of deaminated compound (3),[2]; [8],0.00%
same,Increased amount of desaccharified compound (2),[2]; [8],0.00%
same,Increased amount of deaminated compound (3),[2]; [9],0.00%
same,Increased amount of desaccharified compound (2),[2]; [9],0.01%
same,Increased amount of deaminated compound (3),[2]; [10],0.09%
same,Increased amount of desaccharified compound (2),[2]; [10],0.01%
same,Increased amount of deaminated compound (3),[2]; [11],0.00%
same,Increased amount of desaccharified compound (2),[2]; [11],0.00%
same,Increased amount of deaminated compound (3),[2]; [12],0.07%
same,Increased amount of desaccharified compound (2),[2]; [12],0.00%
same,Increased amount of deaminated compound (3),[2]; [13],0.24%
same,Increased amount of desaccharified compound (2),[2]; [13],−0.01%
same,Increased amount of deaminated compound (3),[2]; [14],0.00%
same,Increased amount of desaccharified compound (2),[2]; [14],0.00%
same,Increased amount of deaminated compound (3),[2]; [15],0.19%
same,Increased amount of desaccharified compound (2),[2]; [15],0.05%
same,Increased amount of deaminated compound (3),[2]; [16],0.60%
same,Increased amount of desaccharified compound (2),[2]; [16],0.18%
same,Increased amount of desaccharified compound (2),"[2]; solution about pH 3 with L-cysteine hydrochloride monohydrate and lactose, 5° C., 0 h",0.00%
same,pH value at which deaminated compound (3) tends to be generated,[3],≥ 3.5
COc1cccc2c1C(=O)c1c(O)c3c(c(O)c1C2=O)C[C@@](O)(C(=O)CO)C[C@@H]3O[C@H]1C[C@H](N)[C@H](O)[C@H](C)O1 [Doxorubicin hydrochloride],pH value,[4],5.0-6.0
CC[C@@]1(O)C[C@H](O[C@H]2C[C@H](N(C)C)[C@H](O[C@H]3C[C@H](O)[C@H](O[C@H]4CCC(=O)[C@H](C)O4)[C@H](C)O3)[C@H](C)O2)c2c(cc3c(c2O)C(=O)c2c(O)cccc2C3=O)[C@H]1C(=O)OC [Aclarubicin hydrochloride],pH value,[4],5.0-6.5
COc1cccc2c1C(=O)c1c(O)c3c(c(O)c1C2=O)C[C@@](O)(C(C)=O)C[C@@H]3O[C@H]1C[C@H](N)[C@H](O)[C@H](C)O1 [Daunorubicin hydrochloride],pH value,[4],5.0-6.5
COc1cccc2c1C(=O)c1c(O)c3c(c(O)c1C2=O)C[C@@](O)(C(=O)CO)C[C@@H]3O[C@H]1C[C@H](N)[C@H](O[C@@H]2CCCCO2)[C@H](C)O1.Cl [Pirarubucin hydrochloride],pH value,[4],5.0-6.5
CC(=O)C1=Cc2c(O)c3c(c(O)c2[C@@H](OC2CC(O)C(O)CO2)C1)C(=O)c1ccccc1C3=O (some centres unmarked) [deaminated compound (3)],Ratio at which it may cause turbidity of the injection solution,[5],≥ 1%
CC(=O)[C@]1(O)Cc2c(O)c3c(c(O)c2[C@@H](O[C@H]2C[C@H](N)[C@H](O)[C@H](C)O2)C1)C(=O)c1ccccc1C3=O [Idarubicin hydrochloride],pH value,[4],5.0-7.0

# — patent US8445653B2, “Freeze-dried preparation of stabilized anthracycline compound” (Dainippon Sumitomo Pharma, priority 2002, dated 2013)
